Data from the supplement of paper PMC10307832.

Key:
Experiment in all cases: relative viability (nuclei count vs DMSO), 5 days (fraction); higher = more cells survive
[1] = compound: CC(C)C[C@H](NC(=O)[C@H](CCc1ccccc1)NC(=O)CN1CCOCC1)C(=O)N[C@@H](Cc1ccccc1)C(=O)N[C@@H](CC(C)C)C(=O)[C@@]1(C)CO1 [Carfilzomib] + CC(=O)Nc1cccc(-n2c(=O)n(C3CC3)c(=O)c3c(Nc4ccc(I)cc4F)n(C)c(=O)c(C)c32)c1 [Trametinib] (partner 0.02 µM)
Summary of the method: (§1)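 Lung cancer cell lines were seeded in 1536-well plates and dosed by pin tool the next day, with either a single drug or a fixed anchor-drug dose combined with five library-drug doses (not always all listed) spaced in √10 steps. Five days later, one step fixed the cells and stained their nuclei (final 0.05% Triton X-100, 1% formaldehyde, 1 ug/ml Hoechst), and nuclei were counted on 4× images. Relative viability is the nuclei count in treated wells divided by the count in vehicle wells, and each value is the median of duplicate plates.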

[2] = compound: O=C(c1cc(Cc2n[nH]c(=O)c3ccccc23)ccc1F)N1CCN(C(=O)C2CC2)CC1 [Olaparib] + CS(=O)(=O)CCNCc1ccc(-c2ccc3ncnc(Nc4ccc(OCc5cccc(F)c5)c(Cl)c4)c3c2)o1 [Lapatinib] (partner 2 µM)
Summary of the method: as §1

[3] = compound: O=C(c1cc(Cc2n[nH]c(=O)c3ccccc23)ccc1F)N1CCN(C(=O)C2CC2)CC1 [Olaparib] + CCNC(=O)c1noc(-c2cc(C(C)C)c(O)cc2O)c1-c1ccc(CN2CCOCC2)cc1 [Luminespib] (partner 0.01 µM)
Summary of the method: as §1

[4] = compound: C[C@@H](Oc1cc(-c2cnn(C3CCNCC3)c2)cnc1N)c1c(Cl)ccc(F)c1Cl [Crizotinib] + Cc1nc(NC(=O)N2CCC[C@H]2C(N)=O)sc1-c1ccnc(C(C)(C)C(F)(F)F)c1 [Alpelisib] (partner 2 µM)
Summary of the method: as §1

| Cell Line | relative viability ([1]; first compound 0.001 µM) | relative viability ([1]; first compound 0.003162 µM) | relative viability ([1]; first compound 0.01 µM) | relative viability ([1]; first compound 0.1 µM) | relative viability ([2]; first compound 0.08 µM) | relative viability ([2]; first compound 0.253 µM) | relative viability ([2]; first compound 2.53 µM) | relative viability ([2]; first compound 8 µM) | relative viability ([3]; first compound 0.08 µM) | relative viability ([3]; first compound 0.253 µM) | relative viability ([3]; first compound 2.53 µM) | relative viability ([3]; first compound 8 µM) | relative viability ([4]; first compound 0.01 µM) | relative viability ([4]; first compound 0.03162 µM) | relative viability ([4]; first compound 0.1 µM) | relative viability ([4]; first compound 0.3162 µM) | relative viability ([4]; first compound 1 µM) | relative viability ([1]; first compound 0.03162 µM) |
| --- | --- | --- | --- | --- | --- | --- | --- | --- | --- | --- | --- | --- | --- | --- | --- | --- | --- | --- |
| EKVX | 0.338 | 0.418 | 0.368 | 0.172 | 0.228 | 0.162 | 0.209 | 0.213 | 1.03 | 0.831 | 0.791 | 0.784 | 0.849 | 0.967 | 0.792 | 0.905 | 0.864 | – |
| EMC-BAC-2 | 0.895 | 0.962 | 1.04 | 0.277 | 0.921 | 0.88 | 0.852 | 0.758 | 1.12 | 1.02 | 0.955 | 0.646 | 0.76 | 0.818 | 0.715 | – | 0.781 | 0.791 |
| EPLC-272H | 0.281 | 0.303 | 0.286 | 0.0619 | 1.16 | 0.848 | 1.08 | 1.01 | 0.291 | 0.321 | 0.254 | 0.279 | 0.862 | 0.854 | 0.942 | 0.864 | 1.02 | 0.0724 |
| H3255 | 0.67 | 0.737 | 0.643 | 0.24 | 0.229 | 0.245 | 0.256 | 0.219 | 0.885 | 0.832 | 0.907 | 0.819 | 0.622 | 0.73 | 0.705 | 0.62 | 0.639 | – |
| HARA | 0.66 | 0.693 | 0.627 | 0.109 | 0.836 | 0.725 | 0.699 | 0.763 | 1.22 | 0.531 | 0.8 | 0.523 | 0.859 | 0.836 | 0.863 | 0.881 | 0.767 | 0.339 |
| HCC-15 | 0.367 | 0.426 | 0.432 | 0.17 | 0.999 | 0.752 | 0.808 | 0.765 | 0.462 | 0.372 | 0.346 | 0.191 | 0.846 | 0.938 | 0.906 | 0.848 | 0.956 | 0.372 |
| HCC-44 | 0.966 | 1.08 | 1 | 0.77 | 1.02 | 0.946 | 1.11 | 1.05 | 1.44 | 0.984 | 0.449 | 0.411 | 0.808 | 0.801 | 0.853 | 0.744 | 0.815 | 1.07 |
| HCC-827 | 0.566 | 0.542 | 0.534 | 0.191 | 0.239 | 0.202 | 0.194 | 0.176 | 0.544 | 0.585 | 0.629 | 0.368 | 0.896 | 0.944 | 0.938 | 0.859 | – | 0.491 |
| HOP-62 | 0.385 | 0.38 | 0.363 | 0.0811 | 1.22 | 1.08 | 0.741 | 0.538 | 1 | 0.809 | 0.744 | 0.476 | 0.93 | 1 | 0.731 | 0.964 | 1.08 | 0.21 |
| LC-2-ad | 0.9 | 0.97 | 0.881 | 0.471 | 1.08 | 0.89 | 0.905 | 0.597 | 1.11 | 0.865 | 0.765 | 0.811 | 0.839 | 0.981 | 1.01 | – | 0.895 | 0.917 |
| LCLC-97TM1 | 0.19 | 0.21 | 0.227 | 0.0639 | 1.21 | 0.947 | 0.565 | 0.438 | 0.756 | 0.651 | 0.712 | 0.637 | 0.199 | 0.232 | 0.24 | 0.265 | 0.273 | 0.0729 |
| LK-2 | 0.713 | 0.973 | 0.747 | 0.2 | 0.985 | 0.935 | 0.92 | 0.941 | 0.176 | 0.212 | 0.214 | 0.181 | 1.14 | 0.885 | 0.898 | 1.3 | 1.14 | 0.172 |
| LOU-NH91 | 0.831 | 0.81 | 0.818 | 0.33 | 0.83 | 0.77 | 0.733 | 0.735 | 0.341 | 0.36 | 0.346 | 0.332 | 0.648 | 0.682 | 0.72 | 0.707 | 0.742 | 0.389 |
| LU99A | 0.525 | 0.588 | 0.541 | 0.284 | 1.01 | 0.839 | 0.643 | 0.49 | 0.249 | 0.254 | 0.21 | 0.206 | 0.549 | 0.501 | 0.508 | 0.442 | 0.558 | 0.417 |
| LXF-289 | 0.705 | 0.742 | 0.679 | 0.107 | 0.929 | 0.871 | 0.97 | 0.973 | 0.784 | 0.635 | 0.721 | 0.567 | 0.968 | 1.07 | 1.01 | 0.987 | 1.03 | 0.163 |
| NCI-H23 | 0.39 | 0.328 | 0.428 | 0.0981 | 1.32 | 0.791 | 0.679 | 0.485 | 0.229 | 0.211 | 0.2 | 0.186 | 0.691 | 0.662 | 0.572 | – | 0.724 | 0.238 |
| NCI-H322M | 0.505 | 0.49 | 0.487 | 0.364 | 0.576 | 0.597 | 0.599 | 0.491 | 0.98 | 0.821 | 0.906 | 0.527 | 0.791 | – | 0.773 | 0.916 | 0.789 | 0.507 |
